Test results taken from US20160178610A1, “New screening method for the treatment Friedreich's ataxia” (FRIEDRICH MIESCHER INSTITUTE FOR BIOMEDICAL RESEARCH, priority 2013, published 2016).

Key:
[1] = test system: endogenous FXN gene expression in FRDA-iPSC-derived neurons; experiment: FXN mRNA levels in FRDA-iPSC-derived neurons by real-time RT-PCR, normalized to RPL13A; type: cell-based, human; details: for effect on FXN expression: FRDA-iPSC-derived neurons, treated for 3 weeks, five concentrations, biological duplicates
Protocol: (§1) FIG. 1: Exposure of FRDA-iPSC-derived neurons to [2,6] Naphtyhyridine is the cyclohexyl-[4-(4-phenyl-1-piperazin-1-yl-[2,6]naphthyridin-3-yl)pyridin-2-yl]amine, a chemical inhibitor of PRKD1, leads to an increase in FXN expression while a control compound has no effect. […] FXN mRNA levels were determined by real-time RT-PCR, normalized to RPL13A mRNA levels. *P=0.03.
For quantitative RT-PCR (qRT-PCR) experiments, total RNA was extracted from GM04078, FRDA-4078iBT, and HEK293T-FF2AP cell lines with the Absolutely RNA Microprep Kit (Stratagene). A 1-μg aliquot of total RNA was reverse transcribed with AffinityScript enzyme (Stratagene) using random hexamers according to the manufacturer's instructions. qRT-PCR was performed on a CFX96 Real-Time PCR System (Bio-Rad) using the SsoAdvanced SYBR Green Supermix (Bio-Rad, #172-5264). Relative RNA levels were calculated from CT values according to the ΔCT method and normalized to GAPDH mRNA or 18S rRNA levels. Reprogrammed cells were washed once and total RNA isolated using TRIzol (Life Technologies). After chloroform extraction, RNA was purified using a RNeasy Plus Kit (Qiagen, Germantown, Md.). RNA purity and concentration were verified using an Aligent 2100 Bioanalyzer (Santa Clara, Calif.). […]
Endoderm: Accutase was used for cell dissociation to single cells, which were then plated on matrigel in mTeSR with rock-inhibitor Y27632 (Calbiochem, Darmstadt, Germany) at a density of 100×10^3 per cm^2. […] In order to quantify the efficiency of differentiation into Pax6-expressing neural progenitors, immunostained cultures were generated and the percentage of Pax6-positive and DAPI-positive cells determined in 10 randomly selected microscopic fields. In order to quantify the efficiency of differentiation into β-III Tubulin-expressing neurons, a similar approach was used with cultures previously treated with cytosine-1-β-D-arabinofuranoside to prevent the expansion of neural progenitors. […]

[2] = test system: FRDA-iPSC-derived neurons; experiment: Neuron viability / compound toxicity in FRDA-iPSC-derived neuron cultures; type: cell-based, human; details: even at 10 μM
Protocol: as §1
Importantly, treatment with the compound of formula (II) led to a 25% increase in FXN mRNA expression in FRDA neurons after only 3 weeks of treatment. […] In addition, neuron viability was not affected by exposure to the compound of formula (II), even at 10 μM.

In the case of `c1ccc(-c2c(-c3ccnc(NC4CCCCC4)c3)nc(N3CCNCC3)c3ccncc23)cc1` [compound of formula (II), cyclohexyl-[4-(4-phenyl-1-piperazin-1-yl-[2,6]naphthyridin-3-yl)pyridin-2-yl]amine], the “increase in FXN mRNA expression” value ([1]; FRDA neurons, after 3 weeks of treatment) is reported as 25%, the “effect on FXN expression” value [1] is reported as “significant increase” and the “effect on FXN expression” value ([1]; listed as cyclohexyl-[4-(4-phenyl-1-piperazin-1-yl-[2,6]naphthyridin-3-yl)pyridin-2-yl]ami) is reported as “increase”. The neuron viability [2] was “not affected”.
